# Measured values reported in patent publication US20150031714A1, “METHODS AND COMPOSITIONS FOR PREVENTION OF ALLERGIC REACTION” (Baylor College of Medicine, priority 2013, published 2015).
# Test system: MEF/GFP-Stat3α cells
# Assay: High-throughput fluorescence microscopy (HTFM) cytoplasmic-to-nuclear translocation of GFP-Stat3α
# Type: cell-based, murine
# Settings: Mus musculus, 0.5 h; Table 4; MEF/GFP-Stat3α, IL-6 200 ng/ml and IL-6sR 250 ng/ml 30 min; read-out: HTM IC50
# Protocol: Coverslips were examined by confocal fluorescent microscopy using filters to detect GFP (column one), DAPI (column two) or both (merge; column three). In panel B, MEF-GFP-Stat3 cells were grown in 96-well plates with optical glass bottoms and pretreated with the indicated compound at the indicated concentrations in quadruplicate for 1 hour then stimulated with IL-6 (200 ng/ml) and IL-6sR (250 ng/ml) for 30 minutes. Cells were fixed and the plates were examined by high-throughput microscopy to determine the fluorescence intensity in the nucleus (FLIN) and the % ΔFLINMax was calculated as described in Example 1. Data shown are mean±SD and are representative of 2 or more studies. Best-fit curves were generated based on 4 Parameter Logistic Model/Dose Response One Site/XLfit 4.2, IDBS and were used to calculate IC50 (Table 1).
# Confocal and high-throughput fluorescence microscopy. Confocal and highthroughput fluorescence microscopy (HTFM) of MEF/GFP-Stat3α cells were performed as described (Huang et al., 2007). Briefly, for confocal fluorescence microscopy, cells were grown in 6-well plates containing a cover slip. For HTFM, cells were seeded into 96-well CC3 plates at a density of 5,000 cells/well using an automated plating system. Cells were cultured under standard conditions until 85-90% confluent. Cells were pretreated with compound for 1 hour at 37° C. then stimulated with IL-6 (200 ng/ml) and IL-6sR (250 ng/ml) for 30 minutes. […] Plates were analyzed by automated HTFM using the Cell Lab IC Image Cytometer (IC100) platform and CytoshopVersion 2.1 analysis software (Beckman Coulter). Nuclear translocation is quantified by using the fraction localized in the nucleus (FLIN) measurement (Sharp et al., 2006). […]
# EXP IIB. High throughput fluorescence microscopy (HTFM), cytoplasm-to-nucleus translocation inhibition assays. […] Plates are analyzed by automated HTFM using the Cell Lab IC Image Cytometer (IC100) platform and CytoshopVersion 2.1 analysis software (Beckman Coulter). […]
row,SMILES,IC50 [µM]
1,"O=C(O)c1ccc(C=CC(=O)c2ccc3c(c2)OCCO3)cc1 [Cpd3, 4-[3-(2,3-dihydro-1,4-benzodioxin-6-yl)-3-oxo-1-propen-1-yl]benzoic acid]",131
2,"CCOc1cc(C=C2C(=O)c3ccccc3C2=O)cc(Cl)c1OCc1cccc(C(=O)O)c1 [Cpd3-2, 3-({2-chloro-4-[(1,3-dioxo-1,3-dihydro-2H-inden-2-ylidene)methyl]-6-ethoxyphenoxy}methyl)benzoic acid]",150
